The text below walks through data of patent US10266497B2 (ABIDE THERAPEUTICS, INC., priority 2017, dated 2019).

Some results are limits rather than exact numbers.

Assay [1] concerns the target T1, MAGL (Homo sapiens, UniProt Q99685).
T1 sequence (Q99685 1-303): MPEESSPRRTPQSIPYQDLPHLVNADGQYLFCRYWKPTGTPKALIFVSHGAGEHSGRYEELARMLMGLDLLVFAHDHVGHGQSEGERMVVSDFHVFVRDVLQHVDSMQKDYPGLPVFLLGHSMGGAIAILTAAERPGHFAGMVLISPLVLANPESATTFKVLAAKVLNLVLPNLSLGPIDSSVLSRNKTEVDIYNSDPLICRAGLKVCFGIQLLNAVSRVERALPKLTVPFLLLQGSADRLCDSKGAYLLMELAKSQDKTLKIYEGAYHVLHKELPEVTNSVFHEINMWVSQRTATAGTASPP
The experiment in a line: In vitro competitive activity-based protein profiling, MAGL, human. Particulars: for inhibition at 1 µM: read-out: MAGL % inh. 1 μM (human).

Assay [2] has as its target T2, MAGL (Mus musculus, UniProt O35678).
T2 sequence (O35678 1-303): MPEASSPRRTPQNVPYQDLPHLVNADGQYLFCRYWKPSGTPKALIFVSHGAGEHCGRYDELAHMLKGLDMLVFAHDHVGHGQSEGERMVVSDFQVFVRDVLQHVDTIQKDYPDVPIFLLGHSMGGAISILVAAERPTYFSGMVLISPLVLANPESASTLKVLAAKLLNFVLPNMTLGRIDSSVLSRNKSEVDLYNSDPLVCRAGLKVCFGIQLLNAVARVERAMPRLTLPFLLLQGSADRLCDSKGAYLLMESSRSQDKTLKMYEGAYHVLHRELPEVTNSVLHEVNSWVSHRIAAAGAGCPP
The experiment in a line: In vitro competitive activity-based protein profiling, MAGL, mouse. Particulars: read-out: MAGL % inh. 1 μM (mouse).

Turning to `O=C(O)c1ccn(C(=O)N2CCC3(CCCN3Cc3ccc(C(F)(F)F)cc3N3CC4CCC(C3)O4)CC2)n1` [Example 416, 1-(1-(2-(8-oxa-3-azabicyclo[3.2.1]octan-3-yl)-4-(trifluoromethyl)benzyl)-1,8-diazaspiro[4.5]decane-8-carbonyl)-1H-pyrazole-3-carboxylic acid], the inhibition at 1 µM at MAGL [1] and at MAGL [2] was above 75% throughout.
For `CC(C)c1ccccc1O[C@H]1C[C@@H]2CN(C(=O)n3ccc(C(=O)O)n3)C[C@@H]2C1` [Example 221, 1-(trans-5-(2-isopropylphenoxy)octahydrocyclopenta [c]pyrrole-2-carbonyl)-1H-pyrazole-3-carboxylic acid], the inhibition at 1 µM on MAGL [1] and at MAGL [2] was above 75% in each case.
As to `NC(=O)c1ccc(Cl)cc1CN1CCC2(CCN(C(=O)n3ccc(C(=O)O)n3)CC2)C1` [Example 300, 1-(2-(2-carbamoyl-5-chlorobenzyl)-2,8-diazaspiro[4.5]decane-8-carbonyl)-1H-pyrazole-3-carboxylic acid], the inhibition at 10 µM on MAGL [1] (read-out: MAGL % inh. (human) at 10 uM) is above 75%. Moreover, at MAGL [2], the inhibition at 1 µM is 0 to 25%.
In the case of `CC(C)(O)COc1cccc(CN2CCN(C(=O)n3ccc(C(=O)O)n3)CC2)c1Cl` [Example 213, 1-(4-(2-chloro-3-(2-hydroxy-2-methylpropoxy)benzyl)piperazine-1-carbonyl)-1H-pyrazole-3-carboxylic acid], the inhibition at 1 µM at MAGL [1] and on MAGL [2] was above 75% each time.
In the case of `O=C(O)c1ccn(C(=O)N2CCN(Cc3cccc(Oc4cccnn4)c3)CC2)n1` [Example 229, 1-(4-(3-(pyridazin-3-yloxy)benzyl)piper-azine-1-carbonyl)-1H-pyrazole-3-carboxylic acid], the inhibition at 1 µM on MAGL [1] is 25 to 50%; at MAGL [2] it was 0 to 25%.
Taken in the same sequence, the figures for `NC(=O)c1ccn(C(=O)N2CCC3(CCCN3Cc3cc4ccc(C(F)(F)F)cc4s3)CC2)n1` [Example 22, 1-(1-((6-(Trifluoromethyl)benzo[b]thiophen-2-yl)methyl)-1,8-diazaspiro[4.5]decane-8-carbonyl)-1H-pyrazole-3-carboxamide] were above 75% and above 75%.
Taken in the same sequence, the figures for `O=C(O)c1ccn(C(=O)N2C[C@H]3C[C@H](Oc4ccc(-c5ccccc5)cc4)C[C@H]3C2)n1` [Example 240, 1-(trans-5-([1,1′-biphenyl]-4-yloxy)octahydro-cyclopenta[c]pyrrole-2-carbonyl)-1H-pyrazole-3-carboxylic acid] were above 75% and above 75%.
`O=C(O)c1ccn(C(=O)N2CCC(OCc3cc(Cl)cc(C(F)(F)F)c3)CC2)n1` [Example 275, 1-(4-((3-chloro-5-(trifluoromethyl)benzyl)oxy)piper-idine-1-carbonyl)-1H-pyrazole-3-carboxylic acid]: the inhibition at 1 µM at MAGL [1] and at MAGL [2] was above 75% each time.
For `O=C(O)c1ccn(C(=O)N2CCC3(CC2)CN(Cc2cc(Cl)ccc2C(F)(F)F)C3)n1` [Example 313, 1-(2-(5-chloro-2-(trifluoromethyl)benzyl)-2,7-diazaspiro[3.5]non-ane-7-carbonyl)-1H-pyrazole-3-carboxylic acid], the inhibition at 1 µM at MAGL [1] and on MAGL [2] was above 75% throughout.
Consider `O=C(O)c1ccn(C(=O)N2C[C@H]3C[C@@H](OCc4cccc(C(F)(F)F)c4)C[C@H]3C2)n1` [Example 255, 1-(trans-5-((3-(trifluoromethyl)benzyl)oxy)octa-hydrocyclopenta[c]pyrrole-2-carbonyl)-1H-pyrazole-3-carboxylic acid], for which, on MAGL [1], the IC50 was 100 to 1000 nM and the inhibition at 1 µM is above 75%. The inhibition at 1 µM at MAGL [2] is above 75%.
`Cc1cc(O[C@H]2C[C@@H]3CN(C(=O)n4ccc(C(=O)O)n4)C[C@@H]3C2)ccc1C(F)(F)F` [Example 254, 1-(trans-5-(3-methyl-4-(trifluoromethyl)phenoxy)octahydro-cyclopenta[c]pyrrole-2-carbonyl)-1H-pyrazole-3-carboxylic acid]: the inhibition at 1 µM on MAGL [1] and at MAGL [2] was above 75% in each case.
For the compound `O=C(O)c1ccn(C(=O)N2CCC3(CCN(Cc4ccc(Cl)c(N5CC6COCC6C5)c4)C3)CC2)n1` (stereo not drawn) [Example 401, 1-(2-(4-chloro-3-(tetrahydro-1H-furo[3,4-c]pyrrol-5(3H)-yl)benzyl)-2,8-diazaspiro[4.5]decane-8-carbonyl)-1H-pyrazole-3-carboxylic acid], the inhibition at 1 µM is 25 to 50% on MAGL [1] and 0 to 25% at MAGL [2].
The like results for `COc1cc(-c2ccccc2)ccc1CN1CCN(C(=O)n2ccc(C(=O)O)n2)[C@H](C)C1` [Example 283, (R)-1-(4-((3-methoxy-[1,1′-biphenyl]-4-yl)methyl)-2-methylpiperazine-1-carbonyl)-1H-pyrazole-3-carboxylic acid] were, in that order, above 75% and above 75%.
Taken in the same sequence, the figures for `Cc1cc(-c2cccc(S(C)(=O)=O)c2)ccc1CN1CCN(C(=O)n2ccc(C(=O)O)n2)[C@H](C)C1` [Example 386, (R)-1-(2-methyl-4-((3-methyl-3′-(methylsulfonyl)-[1,1′-biphenyl]-4-yl)methyl)piperazine-1-carbonyl)-1H-pyrazole-3-carboxylic acid] were 50 to 75% and above 75%.
The like results for `O=C(O)c1ccn(C(=O)N2C[C@H]3C[C@H](Oc4ccccc4-c4cccnc4)C[C@H]3C2)n1` [Example 244, 1-(trans-5-(2-(pyridin-3-yl)phenoxy)octa-hydrocyclopenta[c]pyrrole-2-carbonyl)-1H-pyrazole-3-carboxylic acid] were, in that order, above 75% and above 75%.
Regarding `O=C(O)c1nn(C(=O)N2C[C@H]3C[C@H](Oc4cccc(-c5ccccc5)c4)C[C@H]3C2)cc1C(F)(F)F` [Example 369, 1-(trans-5-([1,1′-biphenyl]-3-yloxy)octahydro-cyclopenta[c]pyrrole-2-carbonyl)-4-(trifluoromethyl)-1H-pyrazole-3-carboxylic acid], the inhibition at 1 µM on MAGL [1] and on MAGL [2] was above 75% throughout.
In the case of `O=C(O)c1ccn(C(=O)N2C[C@H]3C[C@H](Oc4cccc(-c5ccccn5)c4)C[C@H]3C2)n1` [Example 242, 1-(trans-5-(3-(pyridin-2-yl)phenoxy)octa-hydrocyclopenta[c]pyrrole-2-carbonyl)-1H-pyrazole-3-carboxylic acid], the inhibition at 1 µM at MAGL [1] and at MAGL [2] was above 75% each time.
`Cc1cc(-c2ccccc2)ccc1CN1CCN(C(=O)n2ccc(C(=O)O)n2)[C@@H](C)C1` [Example 246, (S)-1-(2-methyl-4-((3-methyl-[1,1′-biphenyl]-4-yl)methyl)piperazine-1-carbonyl)-1H-pyrazole-3-carboxylic acid]: on MAGL [1], the IC50 lay within 100 to 1000 nM and the inhibition at 1 µM is above 75%. Besides, the inhibition at 1 µM at MAGL [2] is above 75%.
`C[C@@H]1CN(Cc2ccc(-c3ccccc3)cc2C(F)(F)F)CCN1C(=O)n1ccc(C(=O)O)n1` [Example 351, (R)-1-(2-methyl-4-((3-(trifluoromethyl)-[1,1′-biphenyl]-4-yl)methyl)piperazine-1-carbonyl)-1H-pyrazole-3-carboxylic acid]: the inhibition at 1 µM at MAGL [1] and on MAGL [2] was above 75% throughout.
`O=C(O)c1nn(C(=O)N2CCN(Cc3cccc(Oc4ccc(F)cc4)c3)CC2)cc1Cl` [Example 320, 4-chloro-1-(4-(3-(4-fluorophenoxy)benzyl)piperazine-1-carbonyl)-1H-pyrazole-3-carboxylic acid]: the inhibition at 1 µM on MAGL [1] and at MAGL [2] was above 75% throughout.
Turning to `O=C(O)c1ccn(C(=O)N2CCC3(CCN(Cc4cc(Cl)ccc4OC(F)(F)F)C3)CC2)n1` [Example 371, 1-(2-(5-chloro-2-(trifluoromethoxy)benzyl)-2,8-diazaspiro[4.5]decane-8-carbonyl)-1H-pyrazole-3-carboxylic acid], the inhibition at 1 µM at MAGL [1] and at MAGL [2] was above 75% in each case.
Consider `O=C(O)c1ccn(C(=O)N2CCC3(CCCN3Cc3ccc(C(F)(F)F)cc3N3CC4COCC4C3)CC2)n1` (stereo not drawn) [Example 415, 1-(1-(2-(tetrahydro-1H-furo[3,4-c]pyrrol-5(3H)-yl)-4-(trifluoromethyl)benzyl)-1,8-diazaspiro[4.5]decane-8-carbonyl)-1H-pyrazole-3-carboxylic acid], for which the inhibition at 1 µM at MAGL [1] and on MAGL [2] was above 75% each time.
On to `O=C(O)c1ccn(C(=O)N2C[C@H]3C[C@H](Oc4cc(Cl)ccc4C(F)(F)F)C[C@H]3C2)n1` [Example 297, 1-(trans-5-(5-chloro-2-(trifluoromethyl)phenoxy)octahydro-cyclopenta[c]pyrrole-2-carbonyl)-1H-pyrazole-3-carboxylic acid], for which the inhibition at 1 µM at MAGL [1] and on MAGL [2] was above 75% in each case.
